We go through one compound from patent US8263649B2, “Benzofuran type derivatives, a composition comprising the same for treating or preventing cognitive dysfunction and the use thereof” (Medifron DBT Co., Ltd., priority 2006, dated 2012).

One test relates to ChAT positive neuron. The test can be described thus: ChAT antibody staining of brain sections of transgenic mice. Format: in vivo, mouse. The conditions noted are these: FIG. 15. Here is the method:
(§1) 13 months old dementia model male mice expressing APPswe was used in the experiment and the mice was divided into two groups, i.e., control group consisting of 2 mice and test groups consisting of 4 mice. Each mouse had been fed with the feed mixed with 3 mg of compound IIb everyday for 4 months.
Four tissue sections per mouse were added to PBST to flocculate and then anti-ChAT was added thereto with a ratio of 1:100. The solution was reacted together for overnight at 4° C. and the tissues were washed with PBST. Secondary antibody (HRP conjugated […] IgG antibody) was added thereto and mixed together with the mixed ratio of 1:1000 at room temperature one hour before the reaction.
After washing again with PBST, the tissues were stained to brown color with DAB kit as a staining agent. The stained tissues were photographed using by optical microscope connecting with […] camera and then the number of the ChAT positive neuron in the tissues was determined.

The test system of the next test is A 40. Kind of test: ELISA of beta-amyloid in brain of transgenic mice (A 40). Format: in vivo, mouse. The conditions noted are these: APPswe mice treated for 4 months; no significance statistically; FIG. 13. The protocol: as §1
(§2) At the end of behavior test, the brain of mouse was delivered and the left hemisphere was frozen to be used as a cryo-section material. The remaining right hemisphere was used to measure the formation of beta-amyloid according to the procedure disclosed in the literature (J. Neurosci, 21(12), pp 4183-4187, 2001). […]
(§3) The amount of beta-amyloid in the brains of mice was determined by […] ELISA method according to the manual provided from Biosource Co and ELISA kit (KHB 3482, Biosource Co.) was used in the experiment. […] The level of color reaction was determined at 450 nm using by spectrophotometer and the absolute amount of beta-amyloid in the samples was transformed by comparing with standard value. The brain of the mice treated with the compound 18b for 4 months was delivered and the amount of beta-amyloid in supernatant obtained from the dissolved brain tissue was determined according to ELISA method.

Test [1] deals with ICR mouse administrated aggregated beta amyloid 1-42. Kind of test: AD acute model experiment - Y maze test. Format: in vivo. The protocol:
For passive avoidance test, male ICR mouse weighing 25 g purchased from Samtaco Co. was bred with five mice per cage and the cage was kept with following condition maintaining the temperature of 22±2° C. and the relative humidity of […] under the regularly controlled light/dark condition with an interval of 12 hours.
Synthetic beta amyloid 1-42 (BACHEM) was dissolved in DMSO in order to be 250 μm solution and diluted with PBS to […] and aggregated at 37° C. for four days (Passive Avoidance test) or six days (Y maze test).
Aggregated beta amyloid 1-42 was administrated into the mice according to the procedure disclosed in the literature (Lausen & Belknap, J. Pharmacol. Methods, 16 pp 355-357, 1986). […]
The Y-maze test was performed two days after the administration of beta-amyloid. […] Thereafter, the entering order of the mice into the pathway was observed and the entering time was determined when four limbs of the mice were entered within the pathway. To determine the spatial memory, the percentage of spontaneous alteration behavior was calculated by applying the measured alteration frequency to following empirical formula 1 and the frequency of actual alteration behavior was assigned once at the time that the mice had entered the three pathways continuously. […]

A further test relates to A 42. The test can be described thus: ELISA of beta-amyloid in brain of transgenic mice (A 42). Type of test: in vivo, mouse. The conditions noted are these: APPswe mice treated for 4 months. Here is the method: as §1, §2, §3

Each structure is given as a SMILES string.

`COCCCc1ccc2oc(-c3ccc(OC)c(OC)c3)cc2c1` [Compound 18b, 2-(3,4-dimethoxy-phenyl)-5-(3-methoxy-propyl)-benzofuran]: in the test with ChAT positive neuron, the “number of neuron (ChAT positive) in brain” value was “slightly increased”. Besides, in the test with A 40, the “amount of A 40 in brain (ELISA)” value is “slightly reduced”. Besides, the “recovering effect on memory learning capacity damaged by beta-amyloid (Y maze, spontaneous alteration)” value in test [1] (mice, oral, 50, 100 and 200 mg/kg, FIG. 2, FIG. 3) is “potent recovering effect on memory learning capacity damaged by beta-amyloid in a dose dependent manner”. Besides, in test [1] (treatment group with more than 100 mg/kg, FIG. 3), the “effect on the memory learning capacity (Y maze), best dose group” value was “most excellent effect”. Also, the “change of the amount of A 42 in brain (ELISA)” value in the test on A 42 was “no difference”.
